# In patent US6028107A, “Orthomolecular medical use of L-citrulline for vasoprotection, relaxative smooth muscle tone and cell protection” (priority 1997, dated 2000):
# Entries after “also recorded” stand apart in the source; their conditions may differ.
# Key:
# [1] = tested on: arterial injury; details: 2.25% in the drinking water, long-term; cited from earlier work
# [2] = tested on: muscle; details: oral supplementation daily; cited from earlier work
# [3] = tested on: hippocampal brain tissue; details: extracellular creatine increased by 3 mM; cited from earlier work
# [4] = tested on: migraine aura; details: inhalation of small amounts; cited from earlier work
# [5] = intestinal-derived, portal venous blood; cited from earlier work
# [6] = tested on: migraine pains; test: Migraine attack, oral L-citrulline capsules (Example 4); format: in vivo, human; details: 2.7 grams, again about 1 hour later, third dose 6 hours later
# Method: […] Their body weight was 59 kg. The subject gave a history of migraine pains with and without aura for about 15 years. Currently, the migraine pains were recurring about once to a few times weekly. Their parent had experienced migraine headaches for many years.
# Shortly after the onset of a severe headache attack, the subject ingested 2.7 grams of L-citrulline, followed by another 2.7 grams about 1 hour later. They ingested a third dose of the same amount 6 hours later.
# [7] = Total bleeding time, forearm template method (Example 2); format: in vivo, human; details: after 4 weeks of 5.4 grams daily in 2 divided doses
# Method: The same subject that was studied in Example 1 was studied by total bleeding time determinations before and during ingestion of daily doses of L-citrulline, in two divided subdoses. Forearm bleeding times were done by 3 to 5 mm cuts about 1 mm deep made perpendicular to the fold of the elbow during template methodology and a sphygmomanometer cuff maintained near 40 mm Hg pressure. Control bleeding times were 51/2 minutes. Bleeding time rose to 131/2 minutes after 2 days of ingestion of 8.5 grams daily. Bleeding time was prolonged at 13 minutes after 4 weeks of ingestion of 5.4 grams of L-citrulline daily in 2 divided doses.
# [8] = Tolerability during the study of Example 1; format: in vivo, human
# Description: They remained on their usual regular diet and continued working during the study.
# [9] = plasma-borne; cited from earlier work
# [10] = Plasma ultrafiltrate L-arginine level after oral L-citrulline (Example 1); format: in vivo, human
# Method: A novel […] method for the quantitative assay of free L-arginine in blood plasma was developed. The method measures the color product from monosubstituted guanidines without and with L-arginase incubation to destroy the arginine and the potential guanido color product that would be derived from L-arginine. The photometric decrease in guanido color product measures specifically the concentration of L-arginine. The L-arginine methodology was applied to ultrafiltrates of blood plasma after ultrafiltrations of separated plasma samples were done at 4° Celsius.
# Blood plasma levels after 9 to 10 hours of overnight fasting averaged 83.0±1.1 μM (mean±SD of 3 determinations). Two hours after ingestion of 3.0 grams of L-citrulline in capsular form, plasma L-arginine level rose by […] to 132.7 μM. Overnight fasting plasma levels of L-arginine measured 125.2, 98.1, 90.8, 114.2, and 120.0 μM after ingestion of L-citrulline for 6 days at 6.0 grams, for 13 days at 2.4 grams, for 6 days at 3.4 grams, for 7 days at 6.8 grams, and for 2 days at 8.5 grams, respectively, in 2 divided doses (morning and nightly).
# [11] = tested on: human platelets; details: 300 μM extracellular; L-arginine 30 μM; cited from earlier work
# [12] = tested on: spermatocytes; details: oral 4 to 20 grams daily; cited from earlier work
# [13] = rats, parenteral injection; cited from earlier work
# [14] = tested on: creatine biosynthesis; details: dietary, man; cited from earlier work
# [15] = tested on: endothelial c-NOS; details: plasma L-arginine above normal fasting about 75 to 90 μM; cited from earlier work
# [16] = cited from earlier work
# [17] = tested on: uterine muscle strips; details: added to extracellular fluid; cited from earlier work
# [18] = tested on: oligemic vasoconstriction; details: rats; cited from earlier work
# [19] = tested on: endothelial c-NOS; details: L-glutamine 600 μM; above 10 μM to 1,000 μM and more L-arginine; cited from earlier work
# [20] = tested on: endothelium-dependent vasodilation; details: infusion, hypercholesterolemia; cited from earlier work
# [21] = oral 3-gram single doses, healthy humans; cited from earlier work
# [22] = tested on: glomerular hyperfiltration; details: long-term oral, marked amounts; cited from earlier work
# [23] = tested on: purified endothelial c-NOS; details: purified enzyme in vitro; read-out: apparent Michaelis constant (Km); cited from earlier work
# [24] = tested on: platelet activity; details: cited from earlier work
structure (smiles),measurement,setting,value
Cl.N=C(N)NCCC[C@H](N)C(=O)O [L-arginine hydrochloride],increase of plasma arginine levels,[1],about 2.6 times
same,neoendothelium-dependent arterial muscle relaxation,[1],enhanced neoendothelium-dependent arterial muscle relaxation
same,thickening after arterial injury,[1],reduced thickening
CN(CC(=O)O)C(=N)N [creatine],muscle fatigue with physical exercise,[2],lessened muscle fatigue
same,muscle stores of free creatine and phosphocreatine,[2],greater muscle stores of free creatine and phosphocreatine
same,neurocyte viabilities after anoxic periods,[3],greater neurocyte viabilities
same,neuronal free creatine and phosphocreatine levels,[3],large increases in neuronal free creatine and phosphocreatine levels
CCCCCON=O [amyl nitrite],migraine aura,[4],temporarily reversed migraine aura in some cases
NC(=O)NCCC[C@H](N)C(=O)O [L-citrulline],liver uptake,[5],Without appreciable liver uptake
same,migraine pain,[6],markedly lessened in intensity and in duration
same,nausea during the migraine attack,[6],Much less nausea
same,Bleeding time,[7],13 min
same,adverse symptoms or untoward signs,[8],No adverse symptoms or untoward signs were experienced
same,blood-brain barrier passage,[9],readily passes the blood-brain barrier
same,rise of plasma L-arginine level,"[10]; 2 hours after single oral 3.0 grams, capsular form",62.4%
same,elevation of blood plasma L-arginine versus ingestion of equivalent amounts of L-arginine,[10]; comparison with L-arginine as single amino acid or in protein meals,more efficient and longer lasting
same,blood plasma levels of L-arginine after overnight fasting 9 to 10 hours,[10]; daily dosage in two divided subdoses,greater blood plasma levels of L-arginine even after overnight fasting
same,blood plasma concentrations of free L-arginine,"[10]; single oral doses of 3.0 grams or more, capsule form",promptly raised to much higher levels
NCCC[C@H](N)C(=O)O [L-ornithine],effect on L-arginine uptake,[11],inhibitory
N=C(N)NCCC[C@H](N)C(=O)O [L-arginine],total sperm counts and motility rates,[12],may improve total sperm counts and motility rates
same,plasma half-life,[13],about 1 hour
same,creatine biosynthesis and pools of creatine and phosphocreatine in muscle and nerve,[14],leads to more creatine biosynthesis and slowly expansible pools of creatine and phosphocreatine
same,endothelial nitric oxide production,[15],augments endothelial nitric oxide production
same,time of peak plasma arginine level,[16]; 24.8 grams of L-arginine (30 grams of arginine hydrochloride),about 1 hour
same,time to return to near fasting values,[16]; 24.8 grams of L-arginine,3 h
same,peak plasma arginine relative to fasting values,"[16]; 24.8 grams of L-arginine, fasting 90±6 μM",about 3.6 times
same,muscle quiescence,[17],muscle quiescence
same,muscle relaxation,[17],dose-dependent muscle relaxation
same,nitric oxide generation,[17],nitric oxide generation
same,oligemic vasoconstriction following cortical spreading depression,[18],reduces the oligemic vasoconstriction
same,endothelial production of nitric oxide by c-NOS versus extracellular L-arginine,[19],"directly dependent upon the extracellular concentrations of L-arginine above 10 μM to levels of 1,000 μM and more without apparent saturation of the enzyme"
same,impaired endothelium-dependent vasodilation,[20],impaired endothelium-dependent vasodilation is corrected
same,plasma citrulline levels,[21],without a change in plasma citrulline levels
same,glomerular hyperfiltration and abnormal filtration fraction hemodynamics,[22],prevents the glomerular hyperfiltration and abnormal filtration fraction hemodynamics
same,proteinuria,[22],ameliorates the proteinuria
same,Km,[23],~6 µM
"CC(=O)Oc1ccccc1C(=O)O [aspirin, acetylsalicylic acid]",total bleeding time,[24]; low-dose / small therapeutic doses orally,prolongs the total bleeding time; also recorded: prolonged
same,platelet activity,[24]; low-dose intake,inhibits platelet activity
NCCCC[C@H](N)C(=O)O [L-lysine],effect on L-arginine uptake,[11],inhibitory
NC(=O)CC[C@H](N)C(=O)O [L-glutamine],effect on L-arginine uptake,[11],inhibitory
